According to US20230220047A1, “PEPTIDES FOR TREATMENT OF SEPSIS AND CANCER” (NORWEGIAN UNIVERSITY OF SCIENCE AND TECHNOLOGY (NTNU), priority 2020, published 2023):

Tests used:
TLR4 = assay: qPCR of TLR4-mediated cytokine expression in B6 immortalised murine macrophages; format: cell-based, mouse; settings: 10 μM, 1 h pre-treatment, LPS 100 ng/ml
Method: Cells were pre-treated with 10 μM peptides in cell culture media for 1 h, and stimulated with LPS (100 ng/ml) for increasing lengths of time.
Immortalized bone-derived-macrophages (iBMDM) from wild type, Tram−/− or TIr4−/− C57BL/6 mice were maintained at 37° C. and 5% CO2 in DMEM supplemented with 10% FCS.
Total RNA was isolated from the cells using Qiazol reagent #79306 from QIAGEN, and chloroform extraction followed by purification on RNeasy Mini columns with DNAse digestion (Qiagen). cDNA was prepared using the Maxima First Strand cDNA Synthesis Kit for quantitative real-time polymerase chain reaction (RT-qPCR) (Thermo Fisher Scientific) according to the manufacturer's protocol. qPCR was performed using the PerfeCTa qPCR FastMix (Quanta Biosciences) in replicates and cycled in a StepOnePlus™ Real-Time PCR cycler. The following TaqMan® Gene Expression Assays (Applied Biosystems®) were used: IFNβ (Hs01077958_s1), TNF (Hs00174128_m1), TBP (Hs00427620_m1), CXCL10 (Hs01124251_g1), IL-6 (Hs00174131_m1) and IL-1β (Hs01555410_m1), for human cells; Ifnβ (Mm00439552_s1), Tnf (Mm00443258_m1), Tbp (Mm01277042_m1) and II-1β (Mm00434228_m1), for mouse cells. No RT controls were negative. The level of TBP mRNA was used for normalisation and results presented as relative expression compared to the control untreated sample. Relative expression was calculated using Pfaffl's mathematical model (Pfaffl, Nucleic Acids Research 29(9): e45, 2001). Results are presented as the mean and SD expression fold change for biological replicates relative to non-stimulated cells. Statistical significance was evaluated in GraphPad Prizm 5.03. Data distribution was assumed to be normal but this was not formally tested. The difference between the two groups was determined by two-tailed t test.
We proceeded with cellular assays to address the effect of peptide pre-treatment on TLR4-mediated cytokine expression in B6 immortalised murine macrophages (FIG. 13). Tested peptides had no cytotoxic effect on B6 murine macrophages (FIG. 13A).

[1] = tested on: ANBL-6 multiple myeloma cells; assay: CellTiter-Glo cell viability assay, ANBL-6; format: cell-based; settings: for anti-proliferative activity over a concentration series: 5, 10, 12.5, 15, 20 and 30 μM or 5, 10 and 20 μM
[2] = tested on: primary Vk*MYC multiple myeloma cells; assay: Primary Vk*MYC multiple myeloma cells; format: cell-based, mouse; settings: 7.5 or 15 μM, 48 h
Method: Isolated primary cells were seeded then incubated for 48 hours in growth medium supplemented with water, penetratin, P7-Pen, P7-A4-Pen or P7-N4-Pen, then counted. Peptides were included at concentrations of 7.5 or 15 μM. […] Results are based on 3 biological replicates, error bars show standard deviation of mean.
Multiple myeloma cells JJN-3 (DSMZ (Germany) no. ACC 541), ANBL-6 (Cellosaurus accession number CVCL_5425, obtained from Dr Diane Jelinek, Mayo Clinic, Rochester, Minn.), INA-6 (Cellosaurus accession number CVCL_5209, obtained from Dr M. Gramatzki, University of Erlangen-Nurnberg, Erlangen, Germany), RPMI-8226 (ATCC CCL-155), and IH-1 (Cellosaurus accession number CVCL_WZ44, established from the pleural effusion of a myeloma patient by Myeloma research group, IKOM, NTNU, Trondheim, Norway) were grown in RPMI-1640 (Sigma-Aldrich Norway, Oslo, Norway) supplemented with 100 nM penicillin/streptomycin and 10% FCS, and for ANBL-6, IH-1 and INA-6 cells 2 ng/ml recombinant IL-6 (Gibco, Thermo Fisher Scientific, Waltham, Mass., USA). Murine multiple myeloma Vk*MYC cells were obtained from M.D. Leif Bergsagel (Mayo Clinic, Richester, Minn., USA) and cultured in RPMI-1640 supplemented with 2% human serum (B^+, The blood bank, St Olav's Hospital, Trondheim, Norway), 100 nM penicillin/streptomycin, L-Glutamine (2 mM) and recombinant IL-6 (1 ng/ml). HEK293T (ATCC CRL-3216) were cultured in DMEM with 10% FCS. THP-1 TRAM knockout (KO) and TLR4 KO cell lines, and matching lentivirally transduced control cell lines, were differentiated in the same way as wild type (WT) THP-1. TRAM KO THP-1 cell line is described in Yurchenko et al. (supra).
Primary multiple myeloma cells were isolated from Vk*Myc mice and provided by the Multiple Myeloma Research Group, IKOM, NTNU. The peptides P7-Pen, P7-N4-Pen and P7-A4-Pen were applied to the cultured primary cells and effect of the peptides on cell growth analysed as previously.

Substance	TLR4-mediated Ifnβ, Tnf and Il-1β mRNA expression (TLR4)	effect on proliferation of ANBL-6 cells ([1]; 15 μM)	anti-proliferative activity over a concentration series ([1]; 48 h)	cell proliferation ([1]; ANBL-6, 10 μM, 48 h)	cytotoxic activity (cell numbers below number seeded) ([1]; higher concentrations, 48 h)	effect on primary multiple myeloma cells [2]
Ac-ITVAASVTLTGRQIKIWFQNRRMKWKK-NH2 [Peptide P7-A4-Pen]	strongly inhibited	anti-proliferative effect	clear concentration-dependent effect	strongly inhibited cell proliferation	cytotoxic activity	strong cytotoxic effect
Ac-ITVYASVTLTGRQIKIWFQNRRMKWKK-NH2 [Peptide P7-Pen]	strongly inhibited		essentially no anti-proliferative effect			strong cytotoxic effect
